Measured values reported in ChEMBL document CHEMBL5096234, “Discovery, Optimization, and Evaluation of Selective CDK4/6 Inhibitors for the Treatment of Breast Cancer” (J Med Chem, 2022).
≈ marks a conversion by molar mass, not a printed value. Calls of active or inactive are those of the source. The calls are words filed in the database; no cut-off is given here.

Columns and labels:
[1] = Acute toxicity in ICR mouse assessed as change in heart weight at 1000 to 5000 mg/kg, po administered as single dose and measured every 2 days for 14 days; assay type: organism-based; settings: in vivo, 336 h, dose 1000-5000 mg/kg, time 14 day
CYP3A4 = CYP3A4 (Homo sapiens, UniProt P08684); experiment: Inhibition of CYP3A4 in human liver microsomes using testosterone as substrate at 10 uM preincubated for 5 mins followed by NADPH addition by LC-MS/MS analysis relative to control; assay type: ADME, Microsome; settings: probe testosterone
CYP3A4, sequence (P08684 whole entry): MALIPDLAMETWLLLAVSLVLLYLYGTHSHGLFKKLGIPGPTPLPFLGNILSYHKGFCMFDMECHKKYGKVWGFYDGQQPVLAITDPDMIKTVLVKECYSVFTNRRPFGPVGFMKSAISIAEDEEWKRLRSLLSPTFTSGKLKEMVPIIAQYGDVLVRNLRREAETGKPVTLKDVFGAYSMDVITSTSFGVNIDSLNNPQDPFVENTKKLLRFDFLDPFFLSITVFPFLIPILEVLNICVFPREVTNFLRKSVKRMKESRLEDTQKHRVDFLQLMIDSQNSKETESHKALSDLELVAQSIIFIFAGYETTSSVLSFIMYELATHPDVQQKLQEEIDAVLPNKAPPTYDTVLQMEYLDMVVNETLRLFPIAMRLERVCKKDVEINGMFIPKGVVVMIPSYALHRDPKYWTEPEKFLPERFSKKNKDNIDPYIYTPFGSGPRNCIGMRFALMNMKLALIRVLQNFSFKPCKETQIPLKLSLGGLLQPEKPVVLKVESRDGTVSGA

[2] = Half life in Sprague-Dawley rat 10 mg/kg, po by LC/MS/MS analysis; assay type: ADME, organism-based; settings: in vivo
[3] = MRT (0 to infinity) in Sprague-Dawley rat 10 mg/kg, po by LC/MS/MS analysis; assay type: ADME, organism-based; settings: in vivo
[4] = Acute toxicity in ICR mouse assessed as animal death at 5000 mg/kg, po administered as single dose and measured every 2 days for 14 days; assay type: organism-based; settings: in vivo, 336 h, time 14 day
[5] = Cmax in Sprague-Dawley rat 1 mg/kg, iv by LC/MS/MS analysis; assay type: ADME, organism-based; set-up: dose 1 mg/kg, route iv; settings: in vivo
[6] = Acute toxicity in ICR mouse assessed as lung lesions at 5000 mg/kg, po administered as single dose and measured every 2 days for 14 days by H and E staining based analysis; assay type: organism-based; settings: in vivo, 336 h, time 14 day
[7] = Toxicity in BALB/c mouse xenografted with human MCF7 cells assessed as increase in body weight at 100 to 150 mg/kg, po administered once daily and measured every 2 days for 23 days; assay type: organism-based; settings: in vivo, 552 h, dose 100-150 mg/kg, time 23 day
MCF7 [8] = experiment: Antitumor activity against human MCF7 cells xenografted in BALB/c mouse assessed as inhibition of tumor growth at 150 mg/kg, po administered once daily and measured every 2 days for 23 days; assay type: functional, organism-based; settings: time 23.0 day
CDK4/Cyclin D3 = CDK4/Cyclin D3 (Homo sapiens, UniProt P11802); experiment: Inhibition of CDK4/cyclin-D3 (unknown origin) in presence of ATP by time resolved-FRET assay; assay type: protein-complex assay
CDK4/Cyclin D3, sequence (P11802 whole entry): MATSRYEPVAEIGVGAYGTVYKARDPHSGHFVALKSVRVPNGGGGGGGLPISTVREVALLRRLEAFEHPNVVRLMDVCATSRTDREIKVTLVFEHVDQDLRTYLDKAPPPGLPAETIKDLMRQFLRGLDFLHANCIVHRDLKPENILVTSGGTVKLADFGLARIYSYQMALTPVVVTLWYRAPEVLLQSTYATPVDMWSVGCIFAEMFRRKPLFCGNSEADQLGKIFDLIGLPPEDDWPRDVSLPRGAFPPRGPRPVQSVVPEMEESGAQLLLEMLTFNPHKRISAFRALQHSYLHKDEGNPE
CDK4/Cyclin D3, sequence (P30281 whole entry, further chain): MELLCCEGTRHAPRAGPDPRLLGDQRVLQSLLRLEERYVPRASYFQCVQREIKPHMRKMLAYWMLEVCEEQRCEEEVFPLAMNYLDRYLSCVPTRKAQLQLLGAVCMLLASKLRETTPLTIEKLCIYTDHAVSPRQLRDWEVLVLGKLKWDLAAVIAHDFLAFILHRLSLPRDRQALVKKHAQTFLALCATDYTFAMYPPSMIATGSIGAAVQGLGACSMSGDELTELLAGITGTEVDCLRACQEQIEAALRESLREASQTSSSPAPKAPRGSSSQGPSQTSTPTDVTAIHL

CDK6/cyclin D1 = CDK6/cyclin D1 (Homo sapiens, UniProt Q00534); experiment: Inhibition of CDK6/cyclin-D1 (unknown origin) in presence of ATP by time resolved-FRET assay; assay type: protein-complex assay
CDK6/cyclin D1, sequence (P24385 whole entry): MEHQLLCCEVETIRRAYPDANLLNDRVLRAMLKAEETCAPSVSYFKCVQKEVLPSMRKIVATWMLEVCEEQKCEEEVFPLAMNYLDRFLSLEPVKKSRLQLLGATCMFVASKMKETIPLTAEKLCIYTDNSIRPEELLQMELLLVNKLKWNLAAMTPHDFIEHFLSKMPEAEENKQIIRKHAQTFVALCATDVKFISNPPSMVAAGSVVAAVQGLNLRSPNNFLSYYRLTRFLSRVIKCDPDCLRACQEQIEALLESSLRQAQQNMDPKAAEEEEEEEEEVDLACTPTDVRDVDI
CDK6/cyclin D1, sequence (Q00534 whole entry): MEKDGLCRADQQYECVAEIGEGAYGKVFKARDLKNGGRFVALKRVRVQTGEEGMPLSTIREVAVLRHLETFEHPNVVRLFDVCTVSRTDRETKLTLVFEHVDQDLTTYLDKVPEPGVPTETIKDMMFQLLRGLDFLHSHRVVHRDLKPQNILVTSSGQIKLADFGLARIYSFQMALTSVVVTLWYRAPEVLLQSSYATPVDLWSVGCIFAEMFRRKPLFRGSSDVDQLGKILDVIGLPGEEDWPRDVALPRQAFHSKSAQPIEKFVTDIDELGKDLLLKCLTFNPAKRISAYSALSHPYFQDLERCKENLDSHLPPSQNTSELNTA

[9] = Acute toxicity in ICR mouse assessed as change in lung weight at 1000 to 5000 mg/kg, po administered as single dose and measured every 2 days for 14 days; assay type: organism-based; settings: in vivo, 336 h, dose 1000-5000 mg/kg, time 14 day
T47D [10] = experiment: Induction of cell cycle arrest in human T47D cells assessed as accumulation of cells at G2 phase at 2 uM incubated for 24 hrs by propidium iodide staining based flow cytometry analysis (reference value: 16.57%); assay type: functional
T47D [11] = experiment: Induction of cell cycle arrest in human T47D cells assessed as accumulation of cells at G1 phase at 1 uM incubated for 24 hrs by propidium iodide staining based flow cytometry analysis (reference value: 69.55 %); assay type: functional
CDK2/Cyclin A2 = CDK2/Cyclin A2 (Homo sapiens, UniProt P24941); experiment: Inhibition of CDK2/Cyclin A (unknown origin) in presence of ATP by time resolved-FRET assay; assay type: protein-complex assay
[12] = target: T1, Retinoblastoma-associated protein (Homo sapiens) (UniProt P06400); experiment: Inhibition of RB phosphorylation in human MCF7 cells at 1.5 to 5 uM incubated for 24 hrs by Western blot analysis; assay type: cell-based; settings: dose 1.5-5 µM
T1 sequence (whole entry): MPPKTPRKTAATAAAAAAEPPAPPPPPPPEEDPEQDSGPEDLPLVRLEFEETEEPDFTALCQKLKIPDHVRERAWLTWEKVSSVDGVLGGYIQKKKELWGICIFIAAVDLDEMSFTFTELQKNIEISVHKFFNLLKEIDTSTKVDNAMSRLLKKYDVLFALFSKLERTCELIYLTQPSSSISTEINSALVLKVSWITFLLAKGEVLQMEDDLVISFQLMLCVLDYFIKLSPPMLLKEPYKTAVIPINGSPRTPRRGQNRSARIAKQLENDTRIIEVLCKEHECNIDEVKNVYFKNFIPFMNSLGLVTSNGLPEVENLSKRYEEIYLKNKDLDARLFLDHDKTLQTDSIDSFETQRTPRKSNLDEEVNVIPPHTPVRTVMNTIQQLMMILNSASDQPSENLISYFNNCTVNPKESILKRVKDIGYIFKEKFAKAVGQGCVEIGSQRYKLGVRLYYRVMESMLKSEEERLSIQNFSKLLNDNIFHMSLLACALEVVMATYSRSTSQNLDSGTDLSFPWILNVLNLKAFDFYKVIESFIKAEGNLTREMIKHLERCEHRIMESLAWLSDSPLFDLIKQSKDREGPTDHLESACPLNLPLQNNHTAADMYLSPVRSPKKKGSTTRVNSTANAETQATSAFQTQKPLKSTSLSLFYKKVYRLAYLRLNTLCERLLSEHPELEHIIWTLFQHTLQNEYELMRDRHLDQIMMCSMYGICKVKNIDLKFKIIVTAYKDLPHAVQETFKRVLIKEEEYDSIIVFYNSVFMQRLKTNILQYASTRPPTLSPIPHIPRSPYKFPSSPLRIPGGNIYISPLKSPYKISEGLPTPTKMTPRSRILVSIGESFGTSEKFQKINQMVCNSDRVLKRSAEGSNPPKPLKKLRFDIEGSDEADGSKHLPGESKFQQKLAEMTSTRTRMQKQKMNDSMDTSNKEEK

MCF7 [13] = experiment: Antiproliferative activity against human MCF7 cells assessed as cell growth inhibition incubated for 72 hrs by CCK-8 assay; assay type: functional
MCF7 [14] = experiment: Induction of cell cycle arrest in human MCF7 cells assessed as accumulation of cells at G1 phase at 3 uM incubated for 24 hrs by propidium iodide staining based flow cytometry analysis (reference value: 57.38%); assay type: functional
MCF-10A = experiment: Antiproliferative activity against human MCF-10A cells assessed as cell growth inhibition incubated for 72 hrs by CCK-8 assay; assay type: functional
[15] = Tmax in Sprague-Dawley rat 1 mg/kg, iv by LC/MS/MS analysis; assay type: ADME, organism-based; settings: in vivo
MCF7 [16] = experiment: Downregulation c-MYC level in human MCF7 cells incubated for 24 hrs by Western blot analysis; assay type: functional, cell-based; settings: dose 1.5-5 µM, DDE = dose-dependent effect
[17] = Acute toxicity in ICR mouse assessed as change in heart kidney at 1000 to 5000 mg/kg, po administered as single dose and measured every 2 days for 14 days; assay type: organism-based; settings: in vivo, 336 h, dose 1000-5000 mg/kg, time 14 day
ZR-75-1 = experiment: Antiproliferative activity against human ZR-75-1 cells assessed as cell growth inhibition incubated for 72 hrs by CCK-8 assay; assay type: functional
T47D [18] = experiment: Downregulation cyclin D1 level in human T47D cells incubated for 24 hrs by Western blot analysis; assay type: functional, cell-based; settings: dose 1-4 µM, DDE = dose-dependent effect
MCF7 [19] = experiment: Antiproliferative activity against human MCF7 cells assessed as inhibition of cell growth at 1.5 to 6 uM incubated for 5 days by CCK-8 assay; assay type: functional, cell-based; settings: dose 1.5-6 µM, time 5.0 day
MCF7 [20] = experiment: Induction of cell cycle arrest in human MCF7 cells assessed as accumulation of cells at G2 phase at 6 uM incubated for 24 hrs by propidium iodide staining based flow cytometry analysis (reference value: 29.66%); assay type: functional
[21] = Thermodynamic solubility of the compound incubated for 24 hrs under shaking condition by LC-MS/MS analysis; assay type: physicochemical; settings: read-out: Therm_solubility

For CCN1CCc2cc(-c3nc(Nc4ccc(N5CCNCC5)cn4)ncc3F)ccc2C1=O, the Activity [1] was “Non-Toxic”, the inhibition at 10 µM (CYP3A4) was 12.4% and the half-life [2] was 3.59 h. The MRT inf [3] was 9.11 h, the Activity [4] was “Non-Toxic” and the Cmax [5] was 291 ng/mL. The Activity [6] was “Non-Toxic”, the Activity [7] was “Non-Toxic” and the inhibition (MCF7 [8]) was “Active”. For the same molecule, the IC50 (CDK4/Cyclin D3) was 10 nM, the IC50 (CDK6/cyclin D1) was 16 nM and the Activity [9] was “Non-Toxic”. The Activity (T47D [10]) was 6.06%, the Activity (T47D [11]) was 83.14% and the IC50 (CDK2/Cyclin A2) was 1050 nM. The inhibition [12] was “Active”, the GI50 (MCF7 [13]) was 2700 nM and the Activity (MCF7 [14]) was 83.91%. The GI50 (MCF-10A) was 17600 nM, the Tmax [15] was 1.98 min and the Activity (MCF7 [16]) was “Dde”. The Activity [17] was “Non-Toxic”, the GI50 (ZR-75-1) was 3200 nM and the Activity (T47D [18]) was “Dde”. For the same molecule, the inhibition (MCF7 [19]) was “Active”, the Activity (MCF7 [20]) was 10.67% and the solubility thermodynamic at 24 h [21] was 1020 µg/mL (≈ 2280 µM).
